Earlier results in patent US20240016760A1, “Multivitamin” (priority 2022, published 2024).

What was measured:
CFTR protein = details: patients with CF
CFTR Chloride channels = CFTR Chloride channels (Homo sapiens, UniProt P13569); details: increase from zero, at the appropriate concentrations
CFTR Chloride channels, sequence (P13569 whole entry): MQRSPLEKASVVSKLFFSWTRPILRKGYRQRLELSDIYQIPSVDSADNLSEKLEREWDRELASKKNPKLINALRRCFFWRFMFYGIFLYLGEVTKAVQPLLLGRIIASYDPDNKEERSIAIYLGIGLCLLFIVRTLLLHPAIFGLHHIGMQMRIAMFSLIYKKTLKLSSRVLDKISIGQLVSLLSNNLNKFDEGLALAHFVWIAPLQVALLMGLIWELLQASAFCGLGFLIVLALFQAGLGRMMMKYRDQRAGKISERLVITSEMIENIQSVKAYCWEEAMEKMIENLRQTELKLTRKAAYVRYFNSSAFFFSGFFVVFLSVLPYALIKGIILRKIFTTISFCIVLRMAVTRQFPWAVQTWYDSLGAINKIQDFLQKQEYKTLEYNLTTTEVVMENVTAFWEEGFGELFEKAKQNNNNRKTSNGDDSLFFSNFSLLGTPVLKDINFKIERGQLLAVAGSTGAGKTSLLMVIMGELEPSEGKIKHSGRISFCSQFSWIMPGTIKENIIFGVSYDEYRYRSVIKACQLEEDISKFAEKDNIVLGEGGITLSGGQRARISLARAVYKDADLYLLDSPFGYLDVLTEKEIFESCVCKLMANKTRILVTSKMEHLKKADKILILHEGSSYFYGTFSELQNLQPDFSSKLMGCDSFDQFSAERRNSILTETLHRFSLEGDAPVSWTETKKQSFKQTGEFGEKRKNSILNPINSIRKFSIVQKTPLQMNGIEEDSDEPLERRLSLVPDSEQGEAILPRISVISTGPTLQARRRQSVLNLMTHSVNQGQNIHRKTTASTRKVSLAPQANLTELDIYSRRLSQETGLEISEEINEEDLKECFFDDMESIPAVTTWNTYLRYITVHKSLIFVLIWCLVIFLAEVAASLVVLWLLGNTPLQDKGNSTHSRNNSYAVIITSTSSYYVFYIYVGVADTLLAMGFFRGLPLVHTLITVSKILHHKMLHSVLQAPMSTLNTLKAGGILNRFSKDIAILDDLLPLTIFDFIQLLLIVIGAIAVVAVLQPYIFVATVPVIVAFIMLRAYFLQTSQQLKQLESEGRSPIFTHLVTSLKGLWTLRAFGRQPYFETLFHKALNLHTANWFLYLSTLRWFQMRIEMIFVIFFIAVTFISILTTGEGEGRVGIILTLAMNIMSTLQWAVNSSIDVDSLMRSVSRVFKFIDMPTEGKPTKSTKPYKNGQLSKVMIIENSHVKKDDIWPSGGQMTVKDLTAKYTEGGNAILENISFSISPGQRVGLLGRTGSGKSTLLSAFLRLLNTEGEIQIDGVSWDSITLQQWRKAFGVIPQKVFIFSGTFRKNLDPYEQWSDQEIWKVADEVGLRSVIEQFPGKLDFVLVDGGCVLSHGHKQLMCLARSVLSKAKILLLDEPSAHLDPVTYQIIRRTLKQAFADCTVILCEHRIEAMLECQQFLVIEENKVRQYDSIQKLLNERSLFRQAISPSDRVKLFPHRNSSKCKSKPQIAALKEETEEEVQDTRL

SMILES: CC(C)(C)c1cc(C(C)(C)C)c(NC(=O)c2c[nH]c3ccccc3c2=O)cc1O [Ivacaftor, ivacaftor]
- average increase in lung function (as measured by FEV1) (CFTR protein): ~2%

SMILES: O=C1O[C@H]([C@@H](O)CO)C(O)=C1O [vitamin C]
- average open probability of CFTR Chloride channels (CFTR Chloride channels): 0.21 (+0.08)
